Assay results taken from paper PMC10231839, “A glycan receptor kinase facilitates intracellular accommodation of arbuscular mycorrhiza and symbiotic rhizobia in the legume Lotus japonicus” (PLOS Biology, 2023).

Experiments:
[1] = molecular target: T1, EPR3a intracellular kinase domain (Lotus japonicus, UniProt Z9OTA2OEF3); assay: autophosphorylation, SDS-PAGE with Pro-Q Diamond stain; type: biochemical; conditions: 20 μM ATP, 10 mM MgCl2, pH 8.0, 1 h
T1 construct: intracellular kinase domain residues 255-615; E. coli Rosetta 2; His10-Arg7-SUMO tag cut by 3C protease; lambda-phosphatase dephosphorylated
T1 sequence (Z9OTA2OEF3 255-615): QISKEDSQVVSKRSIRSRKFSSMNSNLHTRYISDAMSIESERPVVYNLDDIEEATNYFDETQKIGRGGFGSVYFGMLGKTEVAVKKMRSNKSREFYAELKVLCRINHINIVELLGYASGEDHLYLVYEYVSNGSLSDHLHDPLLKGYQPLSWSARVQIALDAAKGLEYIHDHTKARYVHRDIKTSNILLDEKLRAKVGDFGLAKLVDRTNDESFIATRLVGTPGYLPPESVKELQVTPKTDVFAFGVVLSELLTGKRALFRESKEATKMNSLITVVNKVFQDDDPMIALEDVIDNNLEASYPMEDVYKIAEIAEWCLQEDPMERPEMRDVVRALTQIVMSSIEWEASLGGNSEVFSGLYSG

[2] = molecular target: T2, EPR3 intracellular kinase domain (Lotus japonicus, UniProt D3KU53); assay: as above; type: biochemical; conditions: 20 μM ATP, 10 mM MgCl2, pH 8.0, 1 h
T2 construct: gene LYS3; intracellular kinase domain residues 259-620; E. coli Rosetta 2; His10-Arg7-SUMO tag cut by 3C protease; lambda-phosphatase dephosphorylated

EPR3a ectodomain = molecular target: T3, EPR3a ectodomain (Lotus japonicus, UniProt Z9OTA2OEF3); assay: microscale thermophoresis; type: binding; conditions: PBS pH 7.4, 500 mM NaCl, 0.01% Tween20, RT, labelled protein
T3 construct: ectodomain residues 25-223; native signal peptide replaced by AcGP67 signal peptide; non-cleavable C-terminal 6xHis; Sf9 insect cells; PNGase F trimmed and BLUE-NHS labelled for MST
T3 sequence (Z9OTA2OEF3 25-223): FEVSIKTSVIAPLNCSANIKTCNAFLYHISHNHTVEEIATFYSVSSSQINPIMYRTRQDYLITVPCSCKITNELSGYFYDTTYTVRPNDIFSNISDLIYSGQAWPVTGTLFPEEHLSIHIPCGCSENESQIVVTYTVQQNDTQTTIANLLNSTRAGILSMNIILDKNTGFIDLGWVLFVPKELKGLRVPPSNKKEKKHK

T2 sequence (D3KU53 entry or part of it): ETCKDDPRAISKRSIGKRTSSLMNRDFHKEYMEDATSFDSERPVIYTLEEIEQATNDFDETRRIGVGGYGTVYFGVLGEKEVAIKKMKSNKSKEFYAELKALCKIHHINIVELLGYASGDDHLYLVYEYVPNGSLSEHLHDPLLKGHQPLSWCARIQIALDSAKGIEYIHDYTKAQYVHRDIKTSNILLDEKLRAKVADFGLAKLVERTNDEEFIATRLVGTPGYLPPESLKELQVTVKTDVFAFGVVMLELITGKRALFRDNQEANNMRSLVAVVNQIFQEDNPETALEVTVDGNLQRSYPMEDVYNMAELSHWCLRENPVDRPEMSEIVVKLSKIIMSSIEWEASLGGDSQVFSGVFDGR

For `Nc1ncnc2c1ncn2[C@@H]1O[C@H](COP(=O)(O)OP(=O)(O)OP(=O)(O)O)[C@@H](O)[C@H]1O` [ATP], the “autophosphorylation, SDS-PAGE with Pro-Q Diamond stain” value [1] was “EPR3a and EPR3 are able to autophosphorylate” and the “autophosphorylation, SDS-PAGE with Pro-Q Diamond stain” value [2] was “EPR3a and EPR3 are able to autophosphorylate”.
`OC[C@H]1O[C@@H](O[C@@H]2[C@@H](O)[C@H](O[C@@H]3[C@@H](O)[C@H](O[C@@H]4[C@@H](O)[C@H](O[C@@H]5[C@@H](O)[C@H](O[C@H]6[C@H](O)[C@@H](CO)OC(O)[C@@H]6O)O[C@H](CO)[C@H]5O)O[C@H](CO)[C@H]4O)O[C@H](CO)[C@H]3O)O[C@H](CO)[C@H]2O)[C@H](O)[C@@H](O)[C@@H]1O` (some centres unmarked) [laminarihexaose] was tested, and the Kd (EPR3a ectodomain) was about 670 µM.
Molecule `OC[C@H]1O[C@@H](O[C@@H]2[C@@H](O)[C@H](O[C@@H]3[C@@H](O)[C@H](O[C@@H]4[C@@H](O)[C@H](O[C@H]5[C@H](O)[C@@H](CO)OC(O)[C@@H]5O)O[C@H](CO)[C@H]4O)O[C@H](CO)[C@H]3O)O[C@H](CO)[C@H]2O)[C@H](O)[C@@H](O)[C@@H]1O` (some centres unmarked) [laminaripentaose] has a Kd (EPR3a ectodomain) of about 850 µM.
With M. loti EPS the Kd (EPR3a ectodomain) was 44.4 ± 11.2 µM.
Work on R. leguminosarum EPS yielded a Kd (EPR3a ectodomain) of 12.5 ± 4 µM.
Molecule S. indica β-1,3/β-1,6 decasaccharide has a Kd (EPR3a ectodomain; first (high-affinity) of two binding events) of 51 ± 23 µM.
Molecule S. meliloti EPS has a Kd (EPR3a ectodomain) of 937 ± 389 µM.
